In patent US20250145606A1 (Arcus Biosciences, Inc., priority 2023, published 2025):

Key:
Format in all cases: in vitro ADME
Conditions in all cases: 5 μM, 4 hours
[1] = test system: cynomolgus monkey hepatocytes; test: Bioactivation assessment in monkey hepatocytes
Description: (§1) Bioactivation Assessment Procedure
(§2) Pooled male Sprague Dawley rat (BioIVT), male beagle dog (BioIVT), male cynomolgus monkey (BioIVT), and a 50-donor pool of cryopreserved human hepatocytes (BioIVT) was thawed in pre-warmed 37° C. InVitroGro™ HT media (BioIVT), centrifuged, and resuspended in the InVitroGro™ HI media (BioIVT). The number of viable cells was determined by the Trypan blue exclusion method. The cells were diluted to a concentration of two million viable cells per milliliter (viability >80%) and seeded into round-bottom 96-well plates. The test articles were dissolved in DMSO and further diluted in 50% CH3CN and InVitroGro™ HI media with final concentrations of 0.05% DMSO and 0.5% CH3CN in the incubation mixture. Incubation was performed at a final concentration of one million cells per milliliter and 5 μM test compounds with continuous shaking at 1100 rpm in a 37° C., 5/95% CO2/air incubator with 100% relative humidity. After 4 hours, the samples were quenched by addition of 3 volumes of CH3CN, vortexed for 15 minutes, and centrifuged at 4200 rpm for 15 minutes at 10° C. (Sorvall Legend XTR centrifuge, Thermo Scientific, Langenselbold, Germany). 80 μL of the resulting supernatant was transferred into a new plate and mixed with 160 μL water followed by liquid chromatography-high resolution mass spectrometry (LC-HRMS) analysis.
(§3) Structural assignments of metabolites were determined through mass spectral analysis. The level of bioactivation was estimated based on the relative peak area of bioactivation products to all identified metabolites. The following equation was used: […]
(§4) Bioactivation products included glutathione conjugates, imine methides, quinones, diols, and other relevant metabolites.

human hepatocytes = test: Bioactivation assessment in human hepatocytes
Description: as §1, §2, §3, §4

beagle dog hepatocytes = test: Bioactivation assessment in dog hepatocytes
Description: as §1, §2, §3, §4

[2] = test system: Sprague Dawley rat hepatocytes; test: Bioactivation assessment in rat hepatocytes
Description: as §1, §2, §3, §4

Percent of total metabolism via bioactivation, Monkey hepatocytes [1]: 31%
Percent of total metabolism via bioactivation, Human hepatocytes (human hepatocytes): 24%
Percent of total metabolism via bioactivation, Dog hepatocytes (beagle dog hepatocytes): 17%
Percent of total metabolism via bioactivation, Rat hepatocytes [2]: 45%
SMILES: Cc1ccc(-c2noc([C@H]3C[C@@H]3F)n2)cc1NC(=O)c1cnc2ccccn12 [labuxtinib, reference compound]
